Laboratory results as given in patent US11730719B2, “Pharmaceutical composition” (KOWA COMPANY, LTD., priority 2017, dated 2023).

Key:
[1] = Hygroscopic property evaluation of pemafibrate crystal (Karl Fischer moisture content); type: physicochemical
Description: A pemafibrate crystal was produced by recrystallizing pemafibrate from an ethyl acetate/heptane mixture in accordance with the method for producing a pemafibrate crystal as described in Non-Patent Document 1.
250 mg of the pemafibrate crystal was placed in a dish, and stored in an uncapped state (open state) in a dark place at 25° C. and 83% relative humidity (RH) for 3 months. The hygroscopic property was evaluated by measuring the moisture contents before and after the storage. The measurement of the moisture content was performed by a coulometric titration method in accordance with The Japanese Pharmacopoeia, 17th Edition, Moisture Content Measurement Method (Karl Fischer Method).

[2] = Examination of stability of pemafibrate (open dish storage, related substances by HPLC); type: physicochemical
Description: 250 mg of pemafibrate was placed in a dish, and stored in an uncapped state (open state) in a dark place at 40° C. and 75% relative humidity (RH) for 3 months.
The sum of related substance-derived peak areas was evaluated in terms of a ratio (%) to the pemafibrate-derived peak area using an HPLC apparatus, and the ratio was defined as the “Total amount (%) of related substances”.

CC[C@@H](Oc1cccc(CN(CCCOc2ccc(OC)cc2)c2nc3ccccc3o2)c1)C(=O)O [Pemafibrate crystal, (2R)-2-[3-([1,3-Benzoxazol-2-yl[3-(4-methoxyphenoxy)propyl]amino]methyl)phenoxy]butanoic acid]
Moisture content (%) ([1]; After storage at 25° C. and 83% RH for 3 months, open state in dish, dark place): <0.1%
Moisture content (%) ([1]; Before storage, 250 mg in dish): <0.1%
Hygroscopic property ([1]; storage at 83% RH for 3 months): not hygroscopic

CC[C@@H](Oc1cccc(CN(CCCOc2ccc(OC)cc2)c2nc3ccccc3o2)c1)C(=O)O [Pemafibrate, (2R)-2-[3-([1,3-Benzoxazol-2-yl[3-(4-methoxyphenoxy)propyl]amino]methyl)phenoxy]butanoic acid]
Total amount (%) of related substances ([2]; After storage at 40° C. and 75% RH for 3 months, open state in dish, dark place): <0.05%
Total amount (%) of related substances ([2]; Before storage, 250 mg in dish): <0.05%
Stability against moisture content ([2]; storage at 75% RH for 3 months): stable
